Experimental data: a melting point compilation (Tetko et al.; mined from patent text by program, amines drawn as free bases though some values may be those of a salt)

| SMILES | melting point [°C] |
| --- | --- |
| COc1nc(N)nc2nc(/C=C3/CC3(CO)CO)[nH]c12 | 188 to 189 |
| Cn1nnnc1-c1cn(C)c2cc(S(C)=O)ccc2c1=O (stereo unspecified) | 237 to 240 |
| COc1ccc(COCc2nc(C(C)C)c(Sc3cc(Cl)cc(Cl)c3)[nH]2)cc1 | 96 to 97 |
| CCCCCCCC[C@H](N[C@@H](C)C(=O)N1C(=O)N(C)C[C@H]1C(=O)O)C(=O)OCC | 85 to 86 |
| COc1cc(NCCO)c([N+](=O)[O-])c(NCCO)c1 | 150 |
| O=C(CC1CCOCC1)N[C@H]1CC[C@H](CCN2CCN(c3nccc4ccoc34)CC2)CC1 | 213 |
| O=S1(=O)N=C(NCC2CCCCC2)Nc2cc(Cl)ccc21 | 317 to 323 |
| O=C(NCCCCN1CCC(c2ccc3c(c2OCc2ccccc2)CCCC3)CC1)c1ccc(-c2ccc(C(F)(F)F)cc2)cc1 | 169 to 170 |
| COc1ccc(-c2c3cccc(C(F)(F)F)c3nn2C2CCC2)c(OC)c1 | 51 to 52 |
| CCN(CC)CCCN1CCN(c2cc(-c3ccnc(NCc4cccc(OC)c4)n3)cc3ccc(OC)cc23)CC1 | 156 to 160 |
| CCC1(CCCCCC(=O)O)C(=O)NC(=O)NC1=O | 185 to 192 |
| Nc1ccnc(Cl)c1Cl | 146 to 148 |
| CC(Oc1cccc(-c2ccc(Cl)c(C(=O)NCC34CC5CC(CC(C5)C3)C4)c2)c1)C(=O)O (stereo unspecified) | 115 to 120 |
| CC(=O)Nc1ccc(P(=O)(O)O)cc1 | 228 |
| CC1(C)CN(Cc2cc(F)ccc2F)c2cc(-c3ccc(C(=O)N4CCC[C@H]4CN4CCCC4)cc3)cnc2N1 | 74 to 77 |
| Cc1cccc(N2CCNC2=O)c1 | 137 to 138 |
| O=C(C1CCN(S(=O)(=O)c2ccc3cc(Br)ccc3c2)CC1)N1CCN(c2ccncc2)CC1 | 229 to 230 |
| CC(C)(C)OC(=O)NC(Cc1cc(C(=O)c2cc(C(F)(F)F)cc(C(F)(F)F)c2)ccc1N)C(=O)OC(C)(C)C (stereo unspecified) | 134 to 135 |
| CN(C)C1(c2ccccc2)CCC(CNC(=O)N2CC=C(c3c[nH]c4ccccc34)CC2)CC1 (stereo unspecified) | 112 to 115 |
| Nc1ccccc1NC(=O)c1ccc(CNC(=O)c2[nH]c(-c3ccoc3)cc2-c2ccc(O)cc2)cc1 | 70 to 72 |
| CCOC(=O)c1ccc(OCCCCCCCCCCCCCCCOc2ccc(Cl)cc2)cc1 | 84 to 85 |
| C[C@]1(COc2ccc(N3CCC(Nc4ccc(Cl)c(Cl)c4)CC3)cc2)Cn2cc([N+](=O)[O-])nc2O1 | 146 to 147 |
| CS(=O)(=O)Nc1cccc(Nc2nc(N3CCCC3)c3nc[nH]c3n2)c1 | 164 to 168 |
| CCN(CC)C(=O)n1cnc(SCC2CC2)n1 | 51 to 52 |
| COc1ccc(C2CC(=O)c3c(C)coc3C2)cc1 (stereo unspecified) | 82 to 83 |

| SMILES | melting point [°C] |
| --- | --- |
| Oc1c(C(Nc2ccc(Cl)cn2)c2ccccn2)ccc2cccnc12 (stereo unspecified) | 160 to 162 |
| COc1ccc(CN2C(=O)[C@@H](N3C(=O)c4ccccc4C3=O)[C@H]2c2ccc(Cl)cc2)c(OC)c1 (relative stereo) | 178 to 180 |
| Cc1ccc2nc(-c3ccc(N)c(I)c3)sc2c1 | 176 to 178 |
| O=S1(=O)N=CN(C2CC2)c2ccc(Br)cc21 | 242 to 244 |
| COc1cc2c(cc1Nc1ncc(Cl)c(N[C@H]3[C@@H](C(N)=O)[C@@H]4C=C[C@H]3C4)n1)CCN(CC(=O)N1CCN(C)CC1)CC2 | 190 |
| COC(=O)c1c(C2=NC(C)(C(C)C)C(=O)N2)cccc1[N+](=O)[O-] (stereo unspecified) | 159 to 162 |
| Cc1nc2ncnn2c(N2CCC(C)CC2)c1-c1ccc(F)cc1Cl | 236 |
| CCOC(=O)c1c(C(F)(F)F)nc(C(F)F)c(C(=O)OC)c1F | 40 to 41 |
| O=C(O)C(C1CC(=O)N(C(=O)OCC(Cl)(Cl)Cl)O1)N1C(=O)c2ccccc2C1=O (stereo unspecified) | 208 to 210 |
| O=C(c1ccc(F)cc1)N1CCCC(c2nc(-c3ccc(F)cc3)no2)C1 (stereo unspecified) | 118 to 122 |
| Cc1ccccc1CNC(=O)[C@@H]1CSCN1C(=O)[C@@H](O)[C@H](Cc1ccccc1)NC(=O)C(C)C(C)C(=O)OC[C@H]1O[C@@H](n2cc(C)c(=O)[nH]c2=O)CC1N=[N+]=[N-] (stereo partly specified) | 114 to 115 |
| COc1ccc(CNc2cc(C(N)=O)c([N+](=O)[O-])cc2[N+](=O)[O-])cc1 | 201 to 203 |
| CC(=O)OC1CC2=CCC3C4CCCC4(C)CCC3C2(C)C(OC(C)=O)C1 (stereo unspecified) | 163 to 165 |
| COc1cc2c(cc1OC)CN(CCOc1ccc(NC(=O)c3cccc4c(=O)c5ccccc5[nH]c34)cc1)CC2 | 154 |
| O=C1Nc2ccccc2C12COc1cc3c(cc12)OCCCO3 (stereo unspecified) | 235 to 236 |
| CC(=O)OC1=C(C=O)C=C2OCCC2C1 (stereo unspecified) | 68 to 70 |
| COc1ccc(Nc2nc(NCCN)nc(NC3CCCCCC3)n2)cc1Cl | 77 |
| O=C(c1n[nH]c2c(=O)[nH]c3cc(Cl)ccc3c(=O)c12)N1CCOCC1 | 347 |
| Cc1cc(F)ccc1NC(=O)c1cccc(S(=O)(=O)N(C)c2ccc(Br)cc2)c1 | 163 to 165 |
| COc1cc(CCc2ccc(O)c(O)c2)cc(OC)c1OC | 113 to 115 |
| COc1cc(CCl)c(OCCC(C)CCCC(C)C)cc1CCl (stereo unspecified) | 65 |
| COc1ccc(C2=NN(Cc3ccccn3)C(=O)[C@H]3CC=CC[C@@H]23)cc1OC (relative stereo) | 146 to 147 |
| COc1cc(OC)cc(N2CCN(C(=S)Nc3nc(C)c(C)nc3OC)CC2)c1 | 71 to 73 |
| Cn1nccc1COc1nn2c(-c3ccccc3F)nnc2cc1C1CCC1 | 184 to 186 |

The remaining lines, values ahead:

| melting point [°C] | SMILES |
| --- | --- |
| 204 to 205 | CCn1cc(C(=O)C(=O)O)c2ccc(-c3ccc(OC(F)(F)F)cc3)cc21 |
| 121 to 122 | CCCCc1nc(C(=O)c2ccccc2)c(C#N)[nH]1 |
| 219 to 221 | CCCc1nc2c(N)nc3ccccc3c2n1CC(C)(C)C(N)=O |
| 77 | Nc1nc2ccccc2c2c1ncn2CCCCNC(=O)[C@@H]1C[C@H]1c1ccccc1 (relative stereo) |
| 126 | Cc1cccc(O)c1S(N)(=O)=O |
| 126 to 130 | Cc1[nH]cnc1Cc1cccc(CO)c1O |
| 154 to 157 | O=C1c2ccccc2C(=O)N1C1CCN(Cc2ccccc2)CC1 |
| 124 to 127 | O=C1C(CCO)Oc2ccccc2N1Cc1ccc([N+](=O)[O-])cc1 (stereo unspecified) |
| 136 to 137 | Cc1oc(-c2ccccc2)nc1COc1ccc2oc(CCCc3nnn[nH]3)cc2c1 |
| 209 to 210 | Cc1ccc2c(c1)c1c(CC(=O)N(C)C)nn(-c3ccccc3)c(=O)c1n2C |
| 159 to 160 | O=S(=O)(C(=CNc1ccccn1)c1ccccc1)c1ccccc1 |
| 141 to 142 | CCCc1nc(NC(C)=O)nc(N2CCOCC2)n1 |
| 83 to 85 | CC(C)CC(NC(=O)Cc1ccc(NC(=O)Nc2ccccc2F)cc1)c1ncc(CCC(=O)O)s1 (stereo unspecified) |
| 225 to 226 | CCCc1c(O)ccc2c(=O)cc(-c3ccc(C(=O)OCC)cc3)oc12 |
| 234 to 236 | O=C(O)COC1=C(Cc2ccc3c(Br)cccc3c2)C(=O)CCC1 |
| 233 to 236 | Nc1nc2nc(N3CCNCC3)nc(N)c2nc1-c1ccccc1 |
| 169 | O=C(c1ccccc1)c1ccc([N+](=O)[O-])c(C(=O)O)c1 |
| 133 to 137 | Cc1oc(=O)c(Nc2ccccc2)nc1Cl |
| 245 to 246 | O=c1nc(-c2cccc(Sc3ncccn3)n2)sc2ccccc12 |
| 284 to 286 | O=C1c2ccccc2C(=O)c2c1ccc(C(=O)O)c2[N+](=O)[O-] |
| 234 to 237 | CC(=O)OCC1CCn2c(c(C3=C(c4coc5ccccc45)C(=O)NC3=O)c3ccccc32)C1 (stereo unspecified) |
| 223 to 224 | CCCCCCCCCCCCn1c2nc(=O)[nH]c(=O)c-2nc2cc(C)c(C)cc21 |
| 171 to 173 | CC(=O)NC1=NN(c2ccc(Cl)cc2)CC1 |
| 158 to 161 | O=C1NCCN1Cc1ccc2c(Br)cccc2c1 |

| melting point [°C] | SMILES |
| --- | --- |
| 77 to 78 | COC(=O)CCCCCC(O)c1ccc(-n2ccnc2)cc1 (stereo unspecified) |
| 176 to 180 | O=C(O)CCC(=O)c1ccc2c(c1)CNC(=O)N2 |
| 114 to 115 | Cc1ccc(Oc2cccc(-c3cccc(C(=O)NCCC#N)c3)n2)c(C)c1 |
| 104 to 107 | Nc1ccccc1-c1nc2ccccc2o1 |
| 114 | Cc1ccnc2ccc(C(=O)c3ccc(Cl)cc3)cc12 |
| 136 to 138 | COC(=O)Nc1cccc(C)c1CNc1cccn2c(C)c(C)nc12 |
| 210 to 211 | S=c1[nH]ccn1C1Cc2ccccc2C1 |
| 175 to 177 | COc1nc(C)nc(NC(=O)NS(=O)(=O)Cc2ccccc2-c2nnc(SC)o2)n1 |
| 135 to 136 | CC(=O)NCc1ccc(CN2CCN(c3ccccc3)CC2)cc1[N+](=O)[O-] |
| 200 to 202 | O=c1nc2n(cc1-c1ccccc1)CCC2 |
| 212 to 214 | COc1ccccc1N1CCN(CCCn2c(=O)[nH]c3c(c2=O)CCCC3)CC1 |
| 66 to 68 | C=CCc1c(OCC=Cc2ccccc2)ccc2c1CCC(=O)N2CC=Cc1ccccc1 |
| 188 to 189 | O=C1c2ccccc2C(=O)N1c1ncc(C(Cl)Cl)nc1CO |
| 148 to 149 | CC(C)(C)OC(=O)c1sc(Nc2ccccc2)c2c1CCc1cnoc1-2 |
| 157 to 158 | O=C(C=Cc1ccc2c(c1)OCO2)C1C(=O)CC(c2ccccc2)CC1=O (stereo unspecified) |
| 106 to 111 | CCOP(=O)(CCCOc1ccc2c(c1)c(CC(N)=O)c(C)n2Cc1ccccc1)OCC |
| 242 to 244 | O=C(NC(Cc1ccc(OCc2ccccc2)cc1)C(=O)O)c1nc2ccc(-c3ccc(Cl)cc3)cn2c1Cl (stereo unspecified) |
| 192 to 193 | CCC(CC)C(NC(=O)c1ccc(Cl)cc1)NC(=C[N+](=O)[O-])Nc1cccnc1 (stereo unspecified) |
| 149 to 150 | CC(C)(C)COc1ccc(NC(=O)c2cnn(-c3ccc(F)cc3)c2Cl)cc1C#N |
| 142 to 143 | COc1ccc(-c2noc(CC(=O)O)c2-c2ccc(OC)cc2)cc1 |
| 83 to 84 | CC(C)=CCOc1ccc2c(=O)c(C)c(-c3ccccc3)oc2c1C(=O)C=Cc1ccccc1 |
| 212 to 214 | O=C1CCC(N2C(=O)c3ccc(CNC(=O)c4ccccn4)cc3C2=O)C(=O)N1 (stereo unspecified) |
| > 360 | CC1(C)C(=O)Nc2cc3[nH]c(-c4ccnnc4)nc3cc21 |
